How the values were obtained:
Type in all cases: cell-based, Rat
[1] = system: activated HSCs (HSC-T6 cells); assay: RT-PCR of fibrotic-related gene Acta2 mRNA in activated HSCs; conditions: after administration of SP
Protocol: (§1) HSC-T6 cells, seeded and cultured in a proper density, were treated with TGF-β([…]) or OCA (5 μM) or GW40064 (5 μM) or WAY-362450 (5 μM) for 12 h before collection.
(§2) RNA solutions and kit components were prepared into a system with a total volume of 20 μl according to a system proportion required in the specification, and a program temperature was set for reverse transcription.
(§3) Stage 2: PCR reaction at 95° C. for 15 sec; for example, at 60° C. for 30 sec for 40 Cycles; and at 72° C. for 30 sec.
(§4) Specific methods were the same as those in section 2.1 in Embodiment 1.
(§5) Specific methods were the same as those in section 2.2 in Embodiment 1.

FXR signaling pathway = assay: RT-PCR of FXR target gene Shp mRNA in quiescent and TGF-β-activated HSC-T6 cells; conditions: for mRNA expression of Shp: activated HSCs, in the presence of SUMO inhibitor SP; for mRNA level of Shp: activated state (TGF-β1 incubation) HSC-T6 cells; for mRNA level of Shp / mRNA level of Shp, an FXR target gene: agonist 5 μM, 12 h; for mRNA level of Shp, an FXR target gene: quiescent HSC-T6 cells
Protocol: as §1
1) After the cells were cleaned by PBS, 800 μl of a Trizol reagent was added. After repeated blowing by a pipette, the cells were transferred into an EP tube to be subjected to still standing for 5 min at the room temperature.
2) 160 μl of chloroform was added, and violent oscillation was performed for 15 sec. After still standing for 5 min at the room temperature, 12000 g centrifugation was performed for 15 min. The sample was divided into three layers including a bottom layer being a yellow organic phase, an upper layer being a colorless water phase, and a middle layer.
3) 300 μl of the upper layer water phase was carefully transferred into a new tube. 300 μl of isopropanol was added. After uniform mixing through reversing, still standing was performed for 10 min at the room temperature. Then, 12000 g centrifugation was performed for 10 min. Supernatant was abandoned.
4) RNA precipitates were washed by 1.0 ml of precooled 75% ethanol. Then, 12000 g centrifugation was performed for 5 min. Supernatant was abandoned to obtain total RNA. Redissolution was performed by 10 μl of DEPC water. After quantification, dilution was performed to 0.5 μg/μl.
as §2
Stage 1: reverse transcription at 37° C. for 15 min.
Stage 2: denaturation at 85° C. for 5 s.
Stage 1: initial denaturation at 95° C. for 1 min.
as §3
Stage 3: dissociation curve analysis at 65 to 95° C., 0.5° C./5s.
as §4, §5

FXR proteins = assay: SUMOylation ELISA of FXR proteins in activated HSCs
Protocol: as §1
After cell nuclear proteins were extracted according to specification requirements of an ELISA detection kit, primary antibodies and nuclear proteins of a cell sample were incubated for 60 min at the room temperature in a plate hole. SUMO specific detection antibodies were then supplemented and added according to the specification requirements. A color sensitizer was further added for color development. Then, absorbance at 655 nm was fast read. Relative quantitative analysis was performed.
as §4
Specific methods were the same as those in section 2.3 in Embodiment 1.

Molecule | expression of fibrotic-related gene Acta2 [1] | mRNA expression of Shp (FXR signaling pathway) | mRNA level of Shp (FXR signaling pathway) | mRNA level of Shp, an FXR target gene (FXR signaling pathway) | SUMOylation level of FXR proteins (FXR proteins)
CC(C)OC(=O)C1=CN(C(=O)c2ccc(F)c(F)c2)CC(C)(C)c2c1[nH]c1ccccc21 [WAY-362450] | significantly reduced | significantly up-regulated | none of the FXR agonists OCA, GW4064 and WAY-362450 could significantly up-regulate | could significantly up-regulate | 
ginkgolic acid [GA] |  |  |  |  | could significantly reduce
CN[C@@H]1[C@H](O)[C@H](NC)[C@H]2O[C@@]3(O)C(=O)C[C@@H](C)O[C@H]3O[C@@H]2[C@H]1O [SP, spectinomycin] |  |  |  |  | could significantly reduce
CC(C)c1onc(-c2c(Cl)cccc2Cl)c1COc1ccc(/C=C/c2cccc(C(=O)O)c2)c(Cl)c1 [GW4064] | significantly reduced | significantly up-regulated | none of the FXR agonists OCA, GW4064 and WAY-362450 could significantly up-regulate | could significantly up-regulate | 

From patent publication US11541032B2, “Composition containing sumo inhibitor and application” (CHINA PHARMACEUTICAL UNIVERSITY, priority 2018, dated 2023)
